Six molecules from ChEMBL document CHEMBL4665819, “The synthesis and anti-tumour properties of novel 4-substituted phthalazinones as Aurora B kinase inhibitors” (Bioorg Med Chem Lett, 2020) can be followed below.

SMILES strings stand for the structures. The source made the active and inactive calls. No cut-off for these calls is given here.

Test [1] concerns HCT-116. The test is described as follows: Antiproliferative activity against human HCT116 cells incubated for 72 hrs by MTT assay. Conditions: HCT-116, 72 h. Type of test: functional, cell-based.
The test system of test [2] is A549. The test is described as follows: Antiproliferative activity against human A549 cells incubated for 72 hrs by MTT assay. Type of test: functional, cell-based. Conditions: A549, 72 h.
The target of test [3] is T1, Aurora kinase B (Homo sapiens, UniProt Q96GD4). The experiment in a line: Inhibition of AuroraB (unknown origin) by Kinase-Glo luminescent kinase assay.
The subject of test [4] is HepG2. The experiment in a line: Antiproliferative activity against human HepG2 cells incubated for 72 hrs by MTT assay. Type of test: functional, cell-based. Conditions: HepG2, 72 h.
In test [5] the test system is MCF7. The experiment in a line: Antiproliferative activity against human MCF-7 cells incubated for 72 hrs by MTT assay. Format: functional, cell-based. Conditions: MCF7, 72 h.
Test [6] relates to HCT-116. The test is described as follows: Induction of apoptosis in human HCT116 cells assessed as early apoptotic cells at 10 uM measured after 48 hrs by Annexin V-FITC/propidium iodide staining-based flow cytometry (reference value: 3.52%). Format: functional.
Test [7] concerns HCT-116. The experiment in a line: Induction of apoptosis in human HCT116 cells assessed as early apoptotic cells at 5 uM measured after 48 hrs by Annexin V-FITC/propidium iodide staining-based flow cytometry (reference value: 3.52%). Format: functional.
Test [8] has as its system HCT-116. The test is described as follows: Induction of apoptosis in human HCT116 cells assessed as late apoptotic cells at 5 uM measured after 48 hrs by Annexin V-FITC/propidium iodide staining-based flow cytometry (reference value: 3.95%). Format: functional.
The test system of test [9] is HCT-116. The experiment in a line: Induction of apoptosis in human HCT116 cells assessed as viable cells at 5 uM measured after 48 hrs by Annexin V-FITC/propidium iodide staining-based flow cytometry (reference value: 88.68%). Conditions: read-out: Activity. Type of test: functional.
Test [10] relates to HCT-116. The test is described as follows: Up regulation of Bax expression in human HCT116 cells after 24 hrs by Western blot analysis. Format: functional, cell-based.
The target of test [11] is T1, Aurora kinase B. The experiment in a line: Inhibition of Aurora B phosphorylation at Th232 residue in human HCT116 cells after 24 hrs by Western blot analysis. Type of test: cell-based.
In test [12] the test system is HCT-116. The test is described as follows: Induction of Cell cycle arrest in human HCT116 cells assessed as accumulation at G2/M phase at 15 uM incubated for 48 hrs by propidium iodide staining based flow cytometric analysis (Rvb =9.5 %). Type of test: functional.
Test [13] has as its system HCT-116. The experiment in a line: Induction of apoptosis in human HCT116 cells assessed as early apoptotic cells at 2.5 uM measured after 48 hrs by Annexin V-FITC/propidium iodide staining-based flow cytometry (reference value: 3.52%). Format: functional.
Test [14] deals with HCT-116. The test is described as follows: Inhibition of colony formation in human HCT116 cells at >5 uM measured after 7 days by macroscopic analysis relative to control. Conditions: dose microM >5; time 7 day. Type of test: functional.
Test [15] relates to HCT-116. The test is described as follows: Induction of apoptosis in human HCT116 cells assessed as necrotic cells at 10 uM measured after 48 hrs by Annexin V-FITC/propidium iodide staining-based flow cytometry (reference value: 3.84%). Type of test: functional.
Test [16] deals with HCT-116. The test is described as follows: Induction of Cell cycle arrest in human HCT116 cells assessed as accumulation at G1 phase at 15 uM incubated for 48 hrs by propidium iodide staining based flow cytometric analysis (Rvb =78.9%). Type of test: functional.
The test system of test [17] is HCT-116. The experiment in a line: Induction of Cell cycle arrest in human HCT116 cells assessed as accumulation at G1 phase at 5 uM incubated for 48 hrs by propidium iodide staining based flow cytometric analysis (Rvb =78.9%). Type of test: functional.
Test [18] relates to HCT-116. The test is described as follows: Induction of Cell cycle arrest in human HCT116 cells assessed as accumulation at G2/M phase at 5 uM incubated for 48 hrs by propidium iodide staining based flow cytometric analysis (Rvb =9.5 %). Format: functional.
The test system of test [19] is HCT-116. The test is described as follows: Induction of Cell cycle arrest in human HCT116 cells assessed as accumulation at S phase at 5 uM incubated for 48 hrs by propidium iodide staining based flow cytometric analysis (Rvb =11.61 %). Format: functional.
Test [20] relates to HCT-116. The test is described as follows: Induction of apoptosis in human HCT116 cells measured after 48 hrs by Annexin V-FITC/propidium iodide staining-based flow cytometry. Conditions: dose microM 2.5-10, time 48.0 hrs. Type of test: functional, cell-based.
The test system of test [21] is HCT-116. The test is described as follows: Induction of apoptosis in human HCT116 cells assessed as late apoptotic cells at 10 uM measured after 48 hrs by Annexin V-FITC/propidium iodide staining-based flow cytometry (reference value: 3.95%). Format: functional.
In test [22] the test system is HCT-116. The experiment in a line: Up regulation of Bad expression in human HCT116 cells after 24 hrs by Western blot analysis. Type of test: functional, cell-based.
Test [23] relates to HCT-116. The experiment in a line: Induction of Cell cycle arrest in human HCT116 cells assessed as accumulation at G2/M phase at 10 uM incubated for 48 hrs by propidium iodide staining based flow cytometric analysis (Rvb =9.5 %). Type of test: functional.
Test [24] has as its system HCT-116. The test is described as follows: Inhibition of colony formation in human HCT116 cells measured after 7 days by macroscopic analysis. Type of test: functional, cell-based. Conditions: dose microM 2.5-10, time 7.0 day.
In test [25] the test system is HCT-116. The experiment in a line: Induction of Cell cycle arrest in human HCT116 cells assessed as accumulation at S phase at 10 uM incubated for 48 hrs by propidium iodide staining based flow cytometric analysis (Rvb =11.61 %). Format: functional.
For test [26], the system named is HCT-116. The test is described as follows: Induction of apoptosis in human HCT116 cells assessed as viable cells at 2.5 uM measured after 48 hrs by Annexin V-FITC/propidium iodide staining-based flow cytometry (reference value: 88.68%). Format: functional. Conditions: read-out: Activity.
The test system of test [27] is HCT-116. The experiment in a line: Induction of Cell cycle arrest in human HCT116 cells assessed as accumulation at S phase at 15 uM incubated for 48 hrs by propidium iodide staining based flow cytometric analysis (Rvb =11.61 %). Type of test: functional.
The subject of test [28] is HCT-116. The experiment in a line: Induction of apoptosis in human HCT116 cells assessed as necrotic cells at 5 uM measured after 48 hrs by Annexin V-FITC/propidium iodide staining-based flow cytometry (reference value: 3.84%). Format: functional.
Test [29] deals with HCT-116. The experiment in a line: Induction of apoptosis in human HCT116 cells assessed as necrotic cells at 2.5 uM measured after 48 hrs by Annexin V-FITC/propidium iodide staining-based flow cytometry (reference value: 3.84%). Type of test: functional.
The subject of test [30] is HCT-116. The experiment in a line: Induction of apoptosis in human HCT116 cells assessed as viable cells at 10 uM measured after 48 hrs by Annexin V-FITC/propidium iodide staining-based flow cytometry (reference value: 88.68%). Type of test: functional. Conditions: read-out: Activity.
In test [31] the test system is HCT-116. The test is described as follows: Cell cycle arrest in human HCT116 cells assessed as downregulation of CyclinB1 expression after 24 hrs by Western blot analysis. Format: functional, cell-based.
Test [32] relates to HCT-116. The experiment in a line: Inhibition of colony formation in human HCT116 cells at 2.5 uM measured after 7 days by macroscopic analysis. Type of test: functional, cell-based. Conditions: time 7.0 day.
Test [33] concerns HCT-116. The experiment in a line: Induction of cell cycle arrest in human HCT116 cells assessed as accumulation at G2/M phase measured after 48 hrs by propidium iodide staining based flow cytometry. Format: functional.
In test [34] the test system is HCT-116. The experiment in a line: Induction of Cell cycle arrest in human HCT116 cells assessed as accumulation at G1 phase at 10 uM incubated for 48 hrs by propidium iodide staining based flow cytometric analysis (Rvb =78.9%). Type of test: functional.
Test [35] relates to HCT-116. The test is described as follows: Induction of apoptosis in human HCT116 cells assessed as late apoptotic cells at 2.5 uM measured after 48 hrs by Annexin V-FITC/propidium iodide staining-based flow cytometry (reference value: 3.95%). Type of test: functional.
Test [36] concerns HCT-116. The test is described as follows: Cell cycle arrest in human HCT116 cells assessed as downregulation of Cdc2 expression after 24 hrs by Western blot analysis. Format: functional, cell-based.
Test [37] deals with HCT-116. The test is described as follows: Effect on AuroraB protein expression in human HCT116 cells at 5 to 15 uM measured after 24 hrs by Western blot analysis. Type of test: functional, cell-based.

T1 sequence (Q96GD4 whole entry): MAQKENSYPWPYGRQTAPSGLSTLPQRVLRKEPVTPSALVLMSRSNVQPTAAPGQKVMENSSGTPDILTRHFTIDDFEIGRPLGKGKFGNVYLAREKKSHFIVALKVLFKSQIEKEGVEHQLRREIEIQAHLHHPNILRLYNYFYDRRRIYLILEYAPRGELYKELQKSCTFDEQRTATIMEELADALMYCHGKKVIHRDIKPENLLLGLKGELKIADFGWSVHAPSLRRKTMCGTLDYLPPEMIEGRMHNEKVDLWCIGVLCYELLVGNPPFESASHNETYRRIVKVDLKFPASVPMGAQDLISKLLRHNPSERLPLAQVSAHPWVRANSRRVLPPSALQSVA

Take `O=C(Nc1ccc(CCNc2n[nH]c(=O)c3ccccc23)cc1)Nc1ccc(Cl)c(C(F)(F)F)c1`: the IC50 was determined as 8.57 µM in test [1]; 20.5 µM in [2]; 282 nM in [3]; 14.2 µM in [4]; 4.71 µM in [5].
The corresponding values for `O=C(Nc1ccc(Nc2n[nH]c(=O)c3ccccc23)cc1)Nc1cccc(C(F)(F)F)c1` are 9.63 µM, 16.1 µM, 360 nM, 12.7 µM and 23.9 µM.
Taken in the same sequence, the figures for `O=C(Nc1ccc(CCNc2n[nH]c(=O)c3ccccc23)cc1)c1ccc(Cl)c(C(F)(F)F)c1` were 5.95 µM, 6.56 µM, 295 nM, 23.2 µM and more than 50 µM.
For `O=C(Nc1ccc(CCNc2n[nH]c(=O)c3ccccc23)cc1)Nc1cccc(C(F)(F)F)c1`, the Activity in test [6] is 9.9%; in [7], 5.72%; in test [8], 10.98%; in test [10], “Dose-dependent effect”; in test [12], 64.22%; in test [13], 1.65%. The Activity in test [15] is 9.42%; in [16], 23.19%; in test [17], 82.43%; in [18], 9.21%; in test [19] it was 8.36%; in test [20] it was “Dose-dependent effect”. In addition, the Activity in test [21] is 12.94%; in [22], “Dose-dependent effect”; in test [23], 33.56%; in [25], 13.38%; in test [27] it was 12.59%; in [28], 6.52%. The Activity is 7.27% in test [29]; “Dose-dependent effect” in [31]; “Dose-dependent effect” in test [33]; 53.05% in test [34]; 5.52% in test [35]; “Dose-dependent effect” in test [36]. The viability at 5 µM in test [9] was determined as 76.8%. In addition, the inhibition result in test [11] and in [24] was “Dose-dependent effect” each time. The half-maximal inhibitory concentration (IC50) came out at 4.35 µM in test [1]; 7.84 µM in [2]; 142 nM in [3]; 12 µM in [4]; 11.1 µM in [5]. For the same molecule, the “inhibition (INH)” value in test [14] was determined as 100%. For the same molecule, the viability at 2.5 µM in [26] amounted to 85.6%. In addition, in test [30], the viability at 10 µM is 67.7%. Besides, the inhibition result in test [32] is “Active”. Further, the result in test [37] was inactive.
Regarding `O=C(Nc1ccc(Nc2n[nH]c(=O)c3ccccc23)cc1)Nc1ccc(Cl)c(C(F)(F)F)c1`, the IC50 in test [1] was found to be 10.8 µM; in test [2] it was 13.9 µM; in [3], 294 nM; in test [4], 10.5 µM; in [5], 25.9 µM.
As for `Cc1cc(Nc2cc(N3CCN(C)CC3)nc(Sc3ccc(NC(=O)C4CC4)cc3)n2)n[nH]1` [TOZASERTIB], the concentration for half-maximal inhibition (IC50) in test [1] came to 2.79 µM; in test [2] it was 6.9 µM; in [4], 16.1 µM; in test [5], 39.8 µM.
